Results: patent US20220324865A1 (Bayer Aktiengesellschaft, priority 2018, published 2022)
pIC50: −log10 of the molar value.

Molecular target: T1, human EP3 receptor (Homo sapiens, UniProt P43115)
T1 construct: expressed in transfected cells; host or cells: CHO K1 (Chinese Hamster Ovary), stably co-transfected with Galpha16 and mitochondrial clytin
T1 sequence (P43115 1-390): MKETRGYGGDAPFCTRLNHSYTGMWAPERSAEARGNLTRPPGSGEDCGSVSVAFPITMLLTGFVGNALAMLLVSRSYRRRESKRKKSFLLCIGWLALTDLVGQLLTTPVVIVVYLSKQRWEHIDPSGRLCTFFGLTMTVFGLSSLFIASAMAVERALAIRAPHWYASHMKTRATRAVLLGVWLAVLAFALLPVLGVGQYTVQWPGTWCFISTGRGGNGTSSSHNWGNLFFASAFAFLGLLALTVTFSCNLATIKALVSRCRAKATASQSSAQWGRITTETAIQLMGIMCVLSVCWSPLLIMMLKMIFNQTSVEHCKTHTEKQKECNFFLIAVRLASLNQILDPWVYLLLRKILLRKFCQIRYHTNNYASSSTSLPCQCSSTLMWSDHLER
Assay: Cellular in vitro assay for determining EP3 receptor activity (human EP3 cell line, sulprostone-stimulated calcium luminescence)
Assay type: cell-based
Details: CHO cells expressing human EP3 and mitochondrial Clytin; antagonist mode, sulprostone at EC50; read-out: EP3 CHO mtCLY ANTAG IC50
In short: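 CHO K1 cells stably expressing human EP3 with Gα16 and mitochondrial Clytin, loaded overnight with coelenterazine. Compounds added 10 min before sulprostone at its EC50; antagonism read immediately as reduced calcium-driven luminescence, quadruplicate points.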

SMILES | pIC50
Cc1ccc(-c2cn3nc(C(=O)N[C@@H](c4ccc(F)cc4)C(C)(C)O)c(C)c3c(=O)[nH]2)c(F)c1F [Example 1-163, 6-(2,3-Difluoro-4-methylphenyl)-N-[(1S)-1-(4-fluorophenyl)-2-hydroxy-2-methylpropyl]-3-methyl-4-oxo-4,5-dihydropyrazolo[1,5-a]pyrazine-2-carboxamide] | 8.11
Cc1cccc2ncc(-c3cn4nc(C(=O)NC(c5ccccc5)C(F)F)c(C(C)C)c4c(=O)[nH]3)cc12 (centres unmarked) [Example 4-68, N-(2,2-Difluoro-1-phenylethyl)-3-isopropyl-6-(5-methyl-3-quinolyl)-4-oxo-5H-pyrazolo[1,5-a]pyrazine-2-carboxamide] | 8.52
Cc1cccc2ncc(-c3cn4nc(C(=O)N[C@H]5c6ccccc6C[C@H]5O)c(C(C)C)c4c(=O)[nH]3)cc12 [Example 4-69, N-[(7S,2R)-2-Hydroxy-2,3-dihydro-1H-inden-1-yl]-6-(5-methylquinolin-3-yl)-4-oxo-3-(propan-2-yl)-4,5-dihydropyrazolo[1,5-a]pyrazine-2-carboxamide] | 8.70
Cc1cccc2ncc(-c3cn4nc(C(=O)NC5Cc6ccccc6C5)c(C(C)C)c4c(=O)[nH]3)cc12 [Example 4-38, N-(2,3-Dihydro-1H-inden-2-yl)-6-(5-methylquinolin-3-yl)-4-oxo-3-(propan-2-yl)-4,5-dihydropyrazolo[1,5-a]pyrazine-2-carboxamide] | 8.89
COc1ccc(C(C)NC(=O)c2nn3cc(-c4ccc5ccccc5c4)[nH]c(=O)c3c2C#N)cc1 (centres unmarked) [Example 3-51, 3-Cyano-N-[1-(4-methoxyphenyl)ethyl]-6-(2-naphthyl)-4-oxo-5H-pyrazolo[1,5-a]pyrazine-2-carboxamide] | 8.73
COC[C@@H](NC(=O)c1cc2c(=O)[nH]c(-c3ccc(C)c(C)c3)cn2n1)c1ccccc1 [Example 1-13, 6-(3,4-Dimethylphenyl)-N-[(1S)-2-methoxy-1-phenylethyl]-4-oxo-4,5-dihydropyrazolo[1,5-a]-pyrazine-2-carboxamide] | 8.94
Cc1c(C(=O)N[C@@H](C)c2ccccc2)nn2c(C)c(-c3ccc4ccccc4c3)[nH]c(=O)c12 [Example 3-22, 3,7-Dimethyl-6-(naphthalen-2-yl)-4-oxo-N-[(7S)-1-phenylethyl]-4,5-dihydropyrazolo[1,5-a]pyrazine-2-carboxamide] | 8.63
Cc1cccc2ncc(-c3cn4nc(C(=O)NC(CN5CCCC5)c5ccccc5)c(C(C)C)c4c(=O)[nH]3)cc12 (centres unmarked) [Example 4-63, 3-Isopropyl-6-(5-methylquinolin-3-yl)-4-oxo-N-[1-phenyl-2-(pyrrolidin-1-yl)ethyl]-4,5-dihydropyrazolo[1,5-a]pyrazine-2-carboxamide] | 8.02
COc1ccc(CNC(=O)c2nn3cc(-c4ccc5ccccc5c4)[nH]c(=O)c3c2C(C)C)cc1OC [Example 1-10, N-(3,4-Dimethoxybenzyl)-6-(naphthalen-2-yl)-4-oxo-3-(propan-2-yl)-4,5-dihydropyrazolo[1,5-a]-pyrazine-2-carboxamide] | 9.24
COc1ccc(C(C)NC(=O)c2cc3c(=O)[nH]c(-c4ccc5ccccc5c4)cn3n2)cc1OC (centres unmarked) [Example 2-55, N-[1-(3,4-Dimethoxyphenyl)ethyl]-6-(2-naphthyl)-4-oxo-4,5-dihydropyrazolo[1,5-a]pyrazine-2-carboxamide] | 8.94
COC(=O)N1CC(NC(=O)c2cc3c(=O)[nH]c(-c4ccc5ccccc5c4)cn3n2)(c2ccc(F)cc2)C1 [Example 1-50, Methyl 3-(4-fluorophenyl)-3-({[6-(naphthalen-2-yl)-4-oxo-4,5-dihydropyrazolo[1,5-a]pyrazin-2-yl]-carbonyl}amino)azetidine-1-carboxylate] | 8.45
Cc1ccc([C@@H](C)NC(=O)c2nn3cc(-c4ccc5ccccc5c4)[nH]c(=O)c3c2C#N)cc1 [Example 3-53, 3-Cyano-N-[(7R)-1-(4-methylphenyl)ethyl]-6-(naphthalen-2-yl)-4-oxo-4,5-dihydropyrazolo[1,5-a]pyrazine-2-carboxamide] | 8.84
Cc1cccc2ncc(-c3cn4nc(C(=O)NC(c5cccc(F)c5)C(F)F)c(C(C)C)c4c(=O)[nH]3)cc12 (centres unmarked) [Example 4-76, N-[2,2-Difluoro-1-(3-fluorophenyl)ethyl]-3-isopropyl-6-(5-methyl-3-quinolyl)-4-oxo-5H-pyrazolo[1,5-a]pyrazine-2-carboxamide] | 8.50
Cc1cccc2ncc(-c3cn4nc(C(=O)NC(C)c5ccc6c(c5)OCCO6)c(C(C)C)c4c(=O)[nH]3)cc12 (centres unmarked) [Example 4-57, N-[1-(2,3-Dihydro-1,4-benzodioxin-6-yl)ethyl]-3-isopropyl-6-(5-methyl-3-quinolyl)-4-oxo-5H-pyrazolo[1,5-a]pyrazine-2-carboxamide] | 8.72
O=C(NC1(c2ccc(F)cc2)CN(C(CF)CF)C1)c1nn2cc(-c3ccc4ccccc4c3)[nH]c(=O)c2c1C(F)(F)F [Example 1-177, N-[1-(1,3-Difluoropropan-2-yl)-3-(4-fluorophenyl)azetidin-3-yl]-6-(naphthalen-2-yl)-4-oxo-3-(trifluoro-methyl)-4,5-dihydropyrazolo[1,5-a]pyrazine-2-carboxamide] | 8.30
Cc1c(C(=O)NC(C)c2ccc(F)cc2)nn2c(C)c(-c3ccc4ccccc4c3)[nH]c(=O)c12 (centres unmarked) [Example 3-21, N-[1-(4-Fluorophenyl)ethyl]-3,7-dimethyl-6-(2-naphthyl)-4-oxo-5H-pyrazolo[1,5-a]pyrazine-2-carboxamide] | 8.74
CC(C)(O)[C@@H](NC(=O)c1nn2cc(-c3ccc4ccccc4c3)[nH]c(=O)c2c1C(F)(F)F)c1ccc(F)cc1 [Example 1-19, N-[(1S)-1-(4-Fluorophenyl)-2-hydroxy-2-methylpropyl]-6-(naphthalen-2-yl)-4-oxo-3-(trifluoromethyl)-4,5-dihydropyrazolo[1,5-a]pyrazine-2-carboxamide] | 9.15
Cc1ccc(-c2cn3nc(C(=O)N[C@@H](CCO)c4ccc(F)cc4)cc3c(=O)[nH]2)cc1C [Example 1-70, 6-(3,4-Dimethylphenyl)-N-[(1S)-1-(4-fluorophenyl)-3-hydroxpropyl]-4-oxo-4,5-dihydropyrazolo-[1,5-a]pyrazine-2-carboxamide] | 8.50
O=C(NCC1CCCCC1)c1cc2c(=O)[nH]c(-c3ccc4c(c3)OCCO4)cn2n1 [Example 1-43, N-(Cyclohexylmethyl)-6-(2,3-dihydro-1,4-benzodioxin-6-yl)-4-oxo-4,5-dihydropyrazolo[1,5-a]-pyrazine-2-carboxamide] | 8.77

Other lines, results leading:

pIC50 | SMILES
8.24 | Cc1ccc(-c2cn3nc(C(=O)N[C@@H](c4ccc(F)cc4)C(C)(C)O)c(C4CC4)c3c(=O)[nH]2)cc1C(F)(F)F [6-246]
8.98 | O=C(NCC(O)C(F)(F)F)c1nn2cc(-c3ccc(Cl)c(Cl)c3)[nH]c(=O)c2c1C1CC1 (racemic) [6-415]
8.50 | COc1ccc(C2(NC(=O)c3nn4cc(-c5ccc(Cl)c(C)c5)[nH]c(=O)c4c3C(F)(F)F)CN(C)C2)cc1 [6-213]
8.64 | CC[C@@H](C)NC(=O)c1nn2cc(-c3ccc(Cl)c(C)c3)[nH]c(=O)c2c1C(F)(F)C(F)(F)F [6-479]
8.15 | Cc1ccc(-c2cn3nc(C(=O)NC(C(C)C)C(O)C(F)(F)F)cc3c(=O)[nH]2)cc1C (centres unmarked) [6-351]
8.59 | Cc1cc(-c2cn3nc(C(=O)NC(CO)C(F)(F)F)c(C4CC4)c3c(=O)[nH]2)ccc1Cl (single isomer, unassigned) [6-308]
8.22 | Cc1ccc(-c2cn3nc(C(=O)N[C@@H](c4ccc(F)cc4)C(C)(C)O)c(C4CC(F)(F)C4)c3c(=O)[nH]2)cc1Cl [6-559]
8.41 | Cc1ccc(-c2cn3nc(C(=O)NC(C)c4cnc(OCC(F)(F)F)cn4)cc3c(=O)[nH]2)cc1C (centres unmarked) [6-2]
8.51 | CN1CC(NC(=O)c2nn3cc(-c4ccc(Cl)c(C(F)F)c4)[nH]c(=O)c3c2C2CC2)(c2ccc(F)cc2)C1 [6-665]
8.71 | Cc1cc(-c2cn3nc(C(=O)N[C@H](C)C(C)C)c(C(F)(F)F)c3c(=O)[nH]2)ccc1Cl [6-217]
8.55 | O=C(NCC(O)C(F)(F)F)c1nn2cc(-c3ccc(Cl)c(Cl)c3)[nH]c(=O)c2c1C1CC1 (single isomer, unassigned) [6-416]
8.67 | C[C@H](NC(=O)c1nn2cc(-c3ccc(Cl)c(F)c3)[nH]c(=O)c2c1C1CC(F)(F)C1)C1CC1 [6-556]
8.68 | COc1cc(-c2cn3nc(C(=O)N[C@@H](c4ccc(F)cc4)C(F)(F)CO)c(C4CC4)c3c(=O)[nH]2)ccc1Cl [6-486]
8.97 | CC(C)c1c(C(=O)N[C@@H](c2ccc(F)cc2)C(C)(C)O)nn2cc(-c3cccc(Cl)c3)[nH]c(=O)c12 [6-683]
8.54 | COc1ccc(C2(NC(=O)c3nn4cc(-c5ccc(Cl)c(C)c5)[nH]c(=O)c4c3C3CC3)CN(C)C2)cc1 [6-303]
8.39 | COC[C@H](NC(=O)c1nn2cc(-c3ccc(C)c(Cl)c3)[nH]c(=O)c2c1C1CC1)c1ccccc1 [6-277]
7.53 | Cc1cc(-c2cn3nc(C(=O)NCC(N)C(F)(F)F)c(C4CC4)c3c(=O)[nH]2)ccc1C(F)(F)F (racemic) [6-130]
8.52 | C[C@@H](NC(=O)c1cc2c(=O)[nH]c(-c3ccc4c(c3)ncn4C)cn2n1)c1ccc(F)cc1 [6-660]
9.34 | Cc1cc(-c2cn3nc(C(=O)N[C@@H](c4ccc(F)cc4)C(C)(C)O)c(C4CC4)c3c(=O)[nH]2)c(F)cc1Cl [6-594]
